# Measurements taken from PubChem BioAssay (NCI).
#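 GI50 marks 50% less growth. TGI is the concentration that stops growth completely.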
# Assays:
# Assay in all cases: growth of human tumour cells (NCI), 384-well format
# COLO 205 colon = test system: COLO 205 colon
# NCI-H226 lung = test system: NCI-H226 lung
# SK-MEL-5 melanoma = test system: SK-MEL-5 melanoma
# HT29 colon = test system: HT29 colon
# SF-295 CNS = test system: SF-295 CNS
# U251 glioblastoma = test system: U251 glioblastoma
# HL-60(TB) leukemia = test system: HL-60(TB) leukemia
# OVCAR-4 ovarian = test system: OVCAR-4 ovarian
# UACC-257 melanoma = test system: UACC-257 melanoma
# HOP-62 NSCLC = test system: HOP-62 NSCLC
# SK-MEL-28 melanoma = test system: SK-MEL-28 melanoma
# SF-539 CNS = test system: SF-539 CNS
# RXF 393 renal = test system: RXF 393 renal
# K-562 leukemia = test system: K-562 leukemia
# UO-31 renal = test system: UO-31 renal
# KM12 colon = test system: KM12 colon
# OVCAR-8 ovarian = test system: OVCAR-8 ovarian
# BT-549 breast = test system: BT-549 breast
# ACHN renal = test system: ACHN renal
# RPMI-8226 leukemia = test system: RPMI-8226 leukemia
# MCF7 breast = test system: MCF7 breast
# MOLT-4 leukemia = test system: MOLT-4 leukemia
# SNB-75 CNS = test system: SNB-75 CNS
# PC-3 prostate = test system: PC-3 prostate
# SK-OV-3 ovarian = test system: SK-OV-3 ovarian
# OVCAR-3 ovarian = test system: OVCAR-3 ovarian
# MALME-3M melanoma = test system: MALME-3M melanoma
# IGROV1 ovarian = test system: IGROV1 ovarian
# NCI-H460 NSCLC = test system: NCI-H460 NSCLC
# MDA-MB-231 breast = test system: MDA-MB-231 breast
# T-47D breast = test system: T-47D breast
# SW-620 colon = test system: SW-620 colon
# M14 melanoma = test system: M14 melanoma
# SN12C renal = test system: SN12C renal
# SNB-19 CNS = test system: SNB-19 CNS
# 786-0 renal = test system: 786-0 renal
# UACC-62 melanoma = test system: UACC-62 melanoma
# NCI-H522 lung = test system: NCI-H522 lung
# MDA-MB-435 melanoma = test system: MDA-MB-435 melanoma
# EKVX NSCLC = test system: EKVX NSCLC
# HS 578T breast = test system: HS 578T breast
# LOX IMVI melanoma = test system: LOX IMVI melanoma
# TK-10 renal = test system: TK-10 renal
# NCI-H23 lung = test system: NCI-H23 lung
# CCRF-CEM leukemia = test system: CCRF-CEM leukemia
# SF-268 CNS = test system: SF-268 CNS
# HOP-92 NSCLC = test system: HOP-92 NSCLC
# A498 renal = test system: A498 renal
# NCI-H322M lung = test system: NCI-H322M lung
# HCT-116 colon = test system: HCT-116 colon
# A549 NSCLC = test system: A549 NSCLC
# NCI/ADR-RES ovarian = test system: NCI/ADR-RES ovarian
# HCC-2998 colon = test system: HCC-2998 colon
# OVCAR-5 ovarian = test system: OVCAR-5 ovarian
# HCT-15 colon = test system: HCT-15 colon
# DU-145 prostate = test system: DU-145 prostate
# CAKI-1 renal = test system: CAKI-1 renal
# MDA-MB-468 breast = test system: MDA-MB-468 breast
structure (smiles),measurement,setting,value
COc1cc2c(NC3CCN(C(C)C)CC3)nc(C3CCCCC3)nc2cc1OCCCN1CCCC1,GI50,COLO 205 colon,1330 nM
same,TGI,COLO 205 colon,2640 nM
same,GI50,NCI-H226 lung,1790 nM
same,TGI,NCI-H226 lung,3940 nM
same,GI50,SK-MEL-5 melanoma,873 nM
same,TGI,SK-MEL-5 melanoma,2120 nM
same,GI50,HT29 colon,285 nM
same,TGI,HT29 colon,1110 nM
same,GI50,SF-295 CNS,1800 nM
same,TGI,SF-295 CNS,3210 nM
same,GI50,U251 glioblastoma,1030 nM
same,TGI,U251 glioblastoma,2200 nM
same,GI50,HL-60(TB) leukemia,429 nM
same,TGI,HL-60(TB) leukemia,1070 nM
same,GI50,OVCAR-4 ovarian,1120 nM
same,TGI,OVCAR-4 ovarian,2440 nM
same,GI50,UACC-257 melanoma,1250 nM
same,TGI,UACC-257 melanoma,2510 nM
same,GI50,HOP-62 NSCLC,1710 nM
same,TGI,HOP-62 NSCLC,3140 nM
same,GI50,SK-MEL-28 melanoma,1260 nM
same,TGI,SK-MEL-28 melanoma,2530 nM
same,GI50,SF-539 CNS,292 nM
same,TGI,SF-539 CNS,937 nM
same,GI50,RXF 393 renal,347 nM
same,TGI,RXF 393 renal,1400 nM
same,GI50,K-562 leukemia,484 nM
same,TGI,K-562 leukemia,1740 nM
same,GI50,UO-31 renal,1320 nM
same,TGI,UO-31 renal,2720 nM
same,GI50,KM12 colon,991 nM
same,TGI,KM12 colon,2520 nM
same,GI50,OVCAR-8 ovarian,1540 nM
same,TGI,OVCAR-8 ovarian,2910 nM
same,GI50,BT-549 breast,378 nM
same,TGI,BT-549 breast,1340 nM
same,GI50,ACHN renal,1790 nM
same,TGI,ACHN renal,3800 nM
same,GI50,RPMI-8226 leukemia,368 nM
same,TGI,RPMI-8226 leukemia,1130 nM
same,GI50,MCF7 breast,1110 nM
same,TGI,MCF7 breast,2400 nM
same,GI50,MOLT-4 leukemia,552 nM
same,TGI,MOLT-4 leukemia,1910 nM
same,GI50,SNB-75 CNS,1400 nM
same,TGI,SNB-75 CNS,2710 nM
same,GI50,PC-3 prostate,1430 nM
same,TGI,PC-3 prostate,4160 nM
same,GI50,SK-OV-3 ovarian,1410 nM
same,TGI,SK-OV-3 ovarian,2970 nM
same,GI50,OVCAR-3 ovarian,835 nM
same,TGI,OVCAR-3 ovarian,2080 nM
same,GI50,MALME-3M melanoma,1370 nM
same,TGI,MALME-3M melanoma,2680 nM
same,GI50,IGROV1 ovarian,1530 nM
same,TGI,IGROV1 ovarian,11300 nM
same,GI50,NCI-H460 NSCLC,365 nM
same,TGI,NCI-H460 NSCLC,1040 nM
same,GI50,MDA-MB-231 breast,1610 nM
same,TGI,MDA-MB-231 breast,3340 nM
same,GI50,T-47D breast,573 nM
same,TGI,T-47D breast,1830 nM
same,GI50,SW-620 colon,1550 nM
same,TGI,SW-620 colon,2910 nM
same,GI50,M14 melanoma,1740 nM
same,TGI,M14 melanoma,3140 nM
same,GI50,SN12C renal,1120 nM
same,TGI,SN12C renal,2950 nM
same,GI50,SNB-19 CNS,1230 nM
same,TGI,SNB-19 CNS,3100 nM
same,GI50,786-0 renal,1350 nM
same,TGI,786-0 renal,2650 nM
same,GI50,UACC-62 melanoma,1750 nM
same,TGI,UACC-62 melanoma,3150 nM
same,GI50,NCI-H522 lung,634 nM
same,TGI,NCI-H522 lung,1830 nM
same,GI50,MDA-MB-435 melanoma,1160 nM
same,TGI,MDA-MB-435 melanoma,2400 nM
same,GI50,EKVX NSCLC,807 nM
same,TGI,EKVX NSCLC,2860 nM
same,GI50,HS 578T breast,1750 nM
same,TGI,HS 578T breast,3140 nM
same,GI50,LOX IMVI melanoma,1450 nM
same,TGI,LOX IMVI melanoma,2790 nM
same,GI50,TK-10 renal,1280 nM
same,TGI,TK-10 renal,2560 nM
same,GI50,NCI-H23 lung,1950 nM
same,TGI,NCI-H23 lung,4650 nM
same,GI50,CCRF-CEM leukemia,205 nM
same,TGI,CCRF-CEM leukemia,397 nM
same,GI50,SF-268 CNS,307 nM
same,TGI,SF-268 CNS,1520 nM
same,GI50,HOP-92 NSCLC,1200 nM
same,TGI,HOP-92 NSCLC,2460 nM
same,GI50,A498 renal,683 nM
same,TGI,A498 renal,1960 nM
same,GI50,NCI-H322M lung,1490 nM
same,TGI,NCI-H322M lung,3010 nM
same,GI50,HCT-116 colon,550 nM
same,TGI,HCT-116 colon,1750 nM
same,GI50,A549 NSCLC,1560 nM
same,TGI,A549 NSCLC,3000 nM
same,GI50,NCI/ADR-RES ovarian,69000 nM
same,TGI,NCI/ADR-RES ovarian,> 100000 nM
same,GI50,HCC-2998 colon,1560 nM
same,TGI,HCC-2998 colon,3010 nM
same,GI50,OVCAR-5 ovarian,1970 nM
same,TGI,OVCAR-5 ovarian,4260 nM
same,GI50,HCT-15 colon,1240 nM
same,TGI,HCT-15 colon,5200 nM
same,GI50,DU-145 prostate,1230 nM
same,TGI,DU-145 prostate,4290 nM
same,GI50,CAKI-1 renal,1390 nM
same,TGI,CAKI-1 renal,2720 nM
same,GI50,MDA-MB-468 breast,262 nM
same,TGI,MDA-MB-468 breast,587 nM
